Results: patent US20180353462A1, “[…] AGENTS […] FLAVONOID DERIVATIVES TARGETING KINASES, SIRTUINS AND ONCOGENIC AGENTS FOR THE TREATMENT OF CANCERS” (priority 2015, published 2018)
pIC50: −log10 of the molar value. Where two headings read alike, the source gives them in different places.

Key:
[1] = system: MV4-11 (Leukemia); assay: WST-1 anticancer cell proliferation assay, MV4-11; assay type: cell-based; conditions: for pIC50: Table 4, read-out: Acute Myeloid Leukemia cell lines MV4-11 IC50; for IC50: Table 3, 72 hours, WST-1, read-out: IC50 (μM) MV4-11 (Leukemia)
Experimental: Anticancer activity was tested against several standard cancer cell lines including brain, breast, Kaposi sarcoma, leukemia, lung, melanoma, tenosynovial giant cell tumor, ovarian, pancreatic, colon and prostate cancer. Cells were trypsinized and plated into 96 well plates in 50 μl of media and incubated overnight. The next day approximately 18 hours after plating, 50 μl of media containing the required flavonoid-based pharmaceutical composition was added per well. Cells were plated at a density so that 72 hours post drug addition, the cells will be in log phase (500)-2000 cells/well). The compounds and extracts were solubilized in Dimethyl sulfoxide (DMSO). The cells are allowed to proliferate for 72 hours 37° C. in humidified atmosphere of 5% CO2. The experiment is terminated using WST-1 (Roche®) 10 μl per well and absorbance is read at 450 nm %690 nm. The effect of drugs on growth is assessed as percent of cell viability. The IC50 values were determined from the extract dose versus control growth curves using Graphpad Prism® software. All experiments were carried out in duplicate and the mean results determined.

[2] = target: T1, FLT3(D835Y) (Homo sapiens, UniProt P36888, D835Y); assay type: binding; conditions: for pIC50: Table 4, read-out: Acute Myeloid Leukemia Kinases FLT3-D835Y IC50; for IC50: Table 1 kinase panel, read-out: IC50 (nM) FLT3(D835Y)
T1 construct: made in house
T1 sequence (P36888 27-993 D835Y): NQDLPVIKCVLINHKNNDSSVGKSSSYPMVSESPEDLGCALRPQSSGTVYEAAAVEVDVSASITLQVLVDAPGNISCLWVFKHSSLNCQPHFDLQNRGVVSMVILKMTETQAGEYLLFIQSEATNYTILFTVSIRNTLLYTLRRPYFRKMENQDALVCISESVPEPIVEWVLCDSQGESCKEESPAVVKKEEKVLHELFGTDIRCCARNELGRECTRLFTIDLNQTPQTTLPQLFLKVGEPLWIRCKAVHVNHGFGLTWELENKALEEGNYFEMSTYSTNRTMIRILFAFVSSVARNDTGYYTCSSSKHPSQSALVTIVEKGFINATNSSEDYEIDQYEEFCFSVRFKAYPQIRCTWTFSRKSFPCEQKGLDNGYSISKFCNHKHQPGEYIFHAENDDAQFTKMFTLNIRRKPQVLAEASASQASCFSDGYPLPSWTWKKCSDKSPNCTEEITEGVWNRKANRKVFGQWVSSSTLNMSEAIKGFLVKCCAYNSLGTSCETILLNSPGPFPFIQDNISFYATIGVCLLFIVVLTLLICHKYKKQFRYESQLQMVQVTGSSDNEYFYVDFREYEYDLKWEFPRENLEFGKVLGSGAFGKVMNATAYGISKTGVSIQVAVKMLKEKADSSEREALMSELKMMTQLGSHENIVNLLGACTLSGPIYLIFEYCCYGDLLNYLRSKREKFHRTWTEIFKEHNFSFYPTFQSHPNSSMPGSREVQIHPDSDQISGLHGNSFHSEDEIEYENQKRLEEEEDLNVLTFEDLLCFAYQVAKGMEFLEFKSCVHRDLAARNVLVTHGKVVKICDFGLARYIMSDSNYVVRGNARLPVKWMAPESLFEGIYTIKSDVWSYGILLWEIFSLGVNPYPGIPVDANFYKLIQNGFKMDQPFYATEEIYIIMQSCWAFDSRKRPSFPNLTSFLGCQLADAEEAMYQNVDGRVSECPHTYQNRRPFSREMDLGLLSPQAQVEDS
Experimental: Cannabis flavonoids and their analogs were subjected to kinase inhibition assay. The compounds were first screened at a single concentration of 10 μM in the primary assay. […] To determine the kd or IC50 values, competition binding assays were established, authenticated and executed as described previously. […] See also, Karaman et al., “A Quantitative Analysis Of Kinase Inhibitor Selectivity”, Nat. Biotechnol. […] For most assays, kinases were fused to T7 phage strains (Fabian, supra) and for the other assays, kinases were produced in HEK-293 cells after which they were tagged with DNA for quantitative PCR detection. In general, full-length constructs were used for small, single domain kinases, and catalytic domain constructs for large multi-domain kinases. […] The liganded beads were blocked with excess biotin and washed with blocking buffer (SeaBlock (Pierce), 1% BSA, 0.05% Tween 20, 1 mM DTT) to remove unbound ligand and to reduce non-specific phage binding. […] All reactions were performed in polypropylene 384-well plates in a final volume of 0.04 ml. […] The kinase concentration in the eluates was measured by quantitative PCR. An illustration of the kinase interaction process is presented below. Kd/IC50 values were determined using a standard dose response curve using the hill equation. Curves were fitted using a non-linear least square fit with the Levenberg-Marquardt algorithm.

SMILES	pIC50 [1]	pIC50 [2]	IC50 [2]	IC50 [1]
COc1cc(-c2oc3cc(O)ccc3c(=O)c2O)ccc1O [FBLGS-81]	6.05	9.05	–	–
O=c1cc(-c2ccc(O)c(O)c2)oc2cc(O)cc(O)c12 [FBLGS-77]	5.14	6.24	–	–
COc1cc(-c2cc(=O)c3c(O)c(C/C=C(\C)CCC=C(C)C)c(O)cc3o2)ccc1O [FBL-03A]	–	–	> 20000 nM	–
COc1cc(O)c2c(=O)c(O)c(-c3ccc(O)c(O)c3)oc2c1 [FBLGS-79]	5.47	7.89	–	–
COc1cc(-c2cc(=O)c3c(O)cc(O)c(C/C=C(\C)CCC=C(C)C)c3o2)ccc1O [FBL-03C]	–	–	> 20000 nM	–
COc1cc(O)c2c(=O)c(O)c(-c3ccc(O)c(OC)c3)oc2c1 [FBLGS-80]	5.23	7.57	–	–
O=C1CC(c2ccc(O)c(O)c2)Oc2cc(O)cc(O)c21 (stereo not drawn) [FBLGS-82]	< 5.00	4.96	–	–
O=c1c(O)c(-c2ccc(O)c(O)c2)oc2cc(O)ccc12 [FBLGS-83]	5.80	7.09	–	–
COc1ccc(C2CC(=O)c3c(O)cc(O)cc3O2)cc1O (stereo not drawn) [FBLGS-74]	< 4.00	5.07	–	–
Cc1cc2oc(-c3cccc(N)c3)cc(=O)c2c([N+](=O)[O-])c1C [FBLGS-76]	5.72	6.17	–	–
O=c1c(O)c(-c2ccc(O)c(O)c2)oc2cc(O)cc(O)c12 [FBLGS-84]	5.20	6.71	–	–
COc1cc(-c2cc(=O)c3c(O)c(OC)c(O)cc3o2)ccc1O [FBLGS-86]	5.66	7.37	–	–
COc1cc(O)c2c(=O)c(O)c(-c3ccc(O)c(O)c3)oc2c1 [FBLGS-78]	5.25	6.83	–	–
COc1cc(-c2cc(=O)c3c(O)c(OC)c(OC)cc3o2)ccc1O [FBLGS-85]	6.05	7.66	–	–
COc1ccc(-c2cc(=O)c3c(O)c(C/C=C(\C)CCC=C(C)C)c(O)cc3o2)cc1OC [FBL-03D]	–	–	> 30000 nM	–
O=c1cc(-c2ccccc2)oc2cc(O)cc(O)c12 [FBLGS-75]	5.36	7.12	–	–
COc1cc(-c2cc(=O)c3c(O)c(CC=C(C)C)c(O)cc3o2)ccc1O [FBL-03B]	–	–	12.7 nM	1.43 µM
COc1cc(-c2cc(=O)c3c(O)cc(O)c(CC=C(C)C)c3o2)ccc1O [FBL-03G]	–	–	45 nM	3.1 µM
